We go through three molecules from patent publication US20240043797A1, “METHOD FOR MASS PRODUCTION OF HIGHLY PURE, STEM CELL-DERIVED EXTRACELLULAR VESICLE BY USING PEPTIDE” (INDUSTRY-ACADEMIC COOPERATION FOUNDATION, CHOSUN UNIVERSITY, priority 2020, published 2024).

Ends that are not written are not given here. Peptide text beside a SMILES is read from it.

In general, viability refers to a per cent measure of how many cells are alive, often set against a control.

Holding throughout (assay type): cell-based
For data set [1], the system named is mesenchymal stem cells. The data set can be described thus: Inhibitor assay: EV production after pretreatment with BAPTA-AM or ALLM. Conditions: TS-eEV production; cells pretreated with 50 μM BAPTA-AM 1 hour or 10 μM ALLM 18 hours. The procedure:
The cells were pretreated with 50 μM BAPTA-AM (calcium-selective chelator) for 1 hour and with 10 μM ALLM (calpain inhibitor) for 18 hours. Comparison was made of EV production outputs among the method used, and the results are shown in FIGS. 14a and 14b and Table 15.

Data set [2] can be described thus: Viability of umbilical cord MSCs against eMTD peptide, absorbance analysis (ez-cytox, 450 nm; 'MTT assay'). The procedure:
Mesenchymal stem cells derived from the umbilical cord (Wharton's jelly-derived MSCs, WJ-MSCs) were assayed for viability by treatment with the eMTD peptide at predetermined concentrations for predetermined periods of time. Tests were conducted with predetermined concentrations of the eMTD peptide. In this regard, umbilical cord-derived mesenchymal stem cells were seeded at a density of 2×10^4 cells/well into 24-well plates (30024, SPL). After 24 hours of incubation, the eMTD peptide in a sucrose buffer was applied at a final concentration of 0, 0.5, 1, 3, 5, 10, or 20 μM to the cells. The sucrose buffer contained glucose, sucrose, and 3-(N-morpholino)propanesulfonic acid [MOPS] at the respective concentrations shown in Table 2. After 15 minutes, the cells were incubated with ez-cytox (EZ-3000, DOGEN) for 30 to 60 minutes. Then, absorbance was read at 450 nm using a Bio-RAD x-Mark™ spectrophotometer (Bio-Rad Laboratories, USA). In addition, treatment with the eMTD peptide was conducted over various times. In this regard, umbilical cord-derived mesenchymal stem cells were seeded at a density of 2×10^4 cells/well into 24-well plates and incubated for 24 hours. Thereafter, the cells were treated with 1 μM of the eMTD peptide in the sucrose buffer for various periods of time (0, 5, 10, 15, 20, 25, or 30 minutes). After 15 minutes of treatment, the cells were incubated for 30 to 60 minutes with ez-cytox (EZ-3000, DOGEN). Absorbance was read at 450 nm using the Bio-RAD x-Mark™ spectrophotometer (Bio-Rad Laboratories, USA).
A general note: Tetrazolium assays rely on reduction of a dye to a coloured formazan, in cell work by metabolically active cells.

A short description of data set [3]: Viability of umbilical cord MSCs against eMTD peptide, cell counting with trypan blue (TB assay). The procedure: To measure the number of cells, umbilical cord-derived mesenchymal stem cells were seeded at a density of 2.5×10^4 cells/well into 12-well plates (30012, SPL) and incubated for 24 hours. The eMTD peptide in the sucrose buffer of Table 2 was applied at a final concentration of 0, 0.5, 1.0, 3.0, 5.0, 10.0, or 20.0 μM to the cells. After 15 minutes, the cells were counted using a trypan blue solution. Separately, umbilical cord-derived mesenchymal stem cells were seeded at a density of 2.5×10^4 cells/well into 12-well plates (30012, SPL) and incubated for 24 hours. The cells were treated with the eMTD peptide in the sucrose buffer of Table 2 for various periods of time (0, 5, 10, 15, 20, 25, and 30 minutes). After each period, the cells were counted using a trypan blue solution, and the results are depicted in FIG. 2 and summarized in Tables 5 and 6.

For the molecule `CSCC[C@@H](C=O)NC(=O)[C@H](CC(C)C)NC(=O)[C@H](CC(C)C)NC(C)=O` [ALLM] (Ac-Leu-Leu-Met-aldehyde), the “EV production (particle number/cell)” value in data set [1] is 8.25 × 10^3 ± 9.96 × 10^2 particle number/cell.
`CC(=O)OCOC(=O)CN(CC(=O)OCOC(C)=O)c1ccccc1OCCOc1ccccc1N(CC(=O)OCOC(C)=O)CC(=O)OCOC(C)=O` [BAPTA-AM]: the “EV production (particle number/cell)” value in data set [1] is recorded as 7.34 × 10^3 ± 9.08 × 10^2 particle number/cell.
In the case of KLNFRQKLLNLISKLFCSGT [eMTD], the viability at 5 min, 1 μM in data set [2] (MTT assay, 1 μM eMTD, time 5 min, read-out: Cell viability (%)) amounted to 52.7%. Also, the viability at 10 min, 1 μM in data set [2] (MTT assay, 1 μM eMTD, time 10 min, read-out: Cell viability (%)) amounted to 41.8%. The viability at 15 min, 1 μM in data set [2] (MTT assay, 1 μM eMTD, time 15 min, read-out: Cell viability (%)) came out at 37%. Further, the viability at 20 min, 1 μM in data set [2] (MTT assay, 1 μM eMTD, time 20 min, read-out: Cell viability (%)) was determined as 29.4%. Besides, the viability at 25 min, 1 μM in data set [2] (MTT assay, 1 μM eMTD, time 25 min, read-out: Cell viability (%)) is 18.5%. The viability at 30 min, 1 μM in data set [2] (MTT assay, 1 μM eMTD, time 30 min, read-out: Cell viability (%)) was 17.8%. The viability at 15 minutes, 0.5 μM turned out to be 53.9% in data set [2] (MTT assay, eMTD 0.5 μM, 15 minutes, read-out: Cell viability (%)) and 66.7% in data set [3] (umbilical cord-derived mesenchymal stem cells, TB assay, eMTD 0.5 μM, 15 minutes). The viability at 15 minutes, 1 μM in data set [2] (MTT assay, eMTD 1.0 μM, 15 minutes, read-out: Cell viability (%)) was 57.4%; in data set [2] (cell viability), about 50%; in data set [3] (umbilical cord-derived mesenchymal stem cells, TB assay, eMTD 1.0 μM, 15 minutes), 66.3%. Besides, the viability at 15 minutes, 3 μM worked out at 13.6% in data set [2] (MTT assay, eMTD 3.0 μM, 15 minutes, read-out: Cell viability (%)) and 21.9% in data set [3] (umbilical cord-derived mesenchymal stem cells, TB assay, eMTD 3.0 μM, 15 minutes). In addition, the viability at 15 minutes, 5 μM in data set [2] (MTT assay, eMTD 5.0 μM, 15 minutes, read-out: Cell viability (%)) came out at 5.8%; in data set [3] (umbilical cord-derived mesenchymal stem cells, TB assay, eMTD 5.0 μM, 15 minutes) it was 11.2%. The viability at 15 minutes, 10 μM is 2.9% in data set [2] (MTT assay, eMTD 10.0 μM, 15 minutes, read-out: Cell viability (%)) and 0% in data set [3]. Besides, the viability at 15 minutes, 20 μM in data set [2] (MTT assay, eMTD 20.0 μM, 15 minutes, read-out: Cell viability (%)) was determined as 4.1%; in data set [3] (umbilical cord-derived mesenchymal stem cells, TB assay, eMTD 20.0 μM, 15 minutes), 2.1%. The molecule also registered a viability at 5 min in data set [3] (umbilical cord-derived mesenchymal stem cells, TB assay, time 5 min) of 40%. In data set [3] (umbilical cord-derived mesenchymal stem cells, TB assay, time 10 min), this molecule displayed a viability at 10 min of 29.7%. Also, the viability at 15 min in data set [3] (umbilical cord-derived mesenchymal stem cells, TB assay, time 15 min) worked out at 38.5%. This molecule also registered a viability at 20 min in data set [3] (umbilical cord-derived mesenchymal stem cells, TB assay, time 20 min) of 35.9%. Besides, in data set [3] (umbilical cord-derived mesenchymal stem cells, TB assay, time 25 min), the viability at 25 min was 14.6%. The viability at 30 min in data set [3] (umbilical cord-derived mesenchymal stem cells, TB assay, time 30 min) was determined as 15.6%.
